From US20260069728A1, “MULTI-TARGETING COMPOUND AND USE THEREOF” (Chengdu Shetai Medical Technology Co., Ltd., priority 2023, published 2026)
Where two headings read alike, the source gives them in different places.

Experiments:
[1] = Isoelectric point (PI) measurement; type: physicochemical
[2] = tested on: SUM149PT human breast cancer cell line; experiment: Cell uptake and inhibition assay, SUM149PT; type: cell-based; settings: for cell uptake, comparison of non-inhibition, FAP single, CXCR4 single and dual inhibition groups (in words): FAPI-04 and T140 as inhibitors; for cell uptake over incubation time (in words): non-inhibition group, 15-120 minutes
Protocol: (§1) The cell lines involved in the cell experiments in the test examples include: SUM149PT human breast cancer cell line, HUTU-80 human duodenal adenocarcinoma cell line, and U-118 MG human brain astrocytoma/glioblastoma cell line.
(§2) SUM149PT: Complete medium was formulated using DMEM high-glucose medium, 10% FBS, and a penicillin-streptomycin solution. The cells were cultured in a constant temperature incubator at 37° C. with 5% CO2. The culture medium was regularly replaced, and the cells were passaged. The culture medium was generally changed every 2 to 3 days. The growth of the tumor cells was observed daily under a microscope, including monitoring cell growth status, checking for adherence, examining cell morphology for any abnormalities, checking for contamination, and observing medium color for any abnormalities. Cells were passaged when they reached 80-90% confluence.
(§3) When cell confluence in the culture flask reached 80%, the cells were digested and centrifuged, and the supernatant was removed. An appropriate amount of medium was added to dilute so that each well contained 500 μL of medium for plating. After thorough mixing by pipetting, the cell suspension was seeded into a 24-well plate at a density of 5×10^5 cells per well. The plate was then placed into the incubator for continued growth. The cells were ready for cellular experiments when they reached 80% confluence.
(§4) (1) The cell uptake assay established four incubation time points: 15, 30, 60, and 120 minutes, respectively. For each time point, four groups were set up: non-inhibition group, a first single inhibition group (FAP single inhibition), a second single inhibition group (CXCR4/GRPR/αvβ3 single inhibition), and a dual inhibition group (FAP inhibitor+CXCR4/GRPR/αvβ3 inhibitor). Each group at each time point was set up with 3 triplicate wells.
(§5) (2) Cells were plated into a 24-well plate according to the cell plating procedure described above.
(§6) (3) The original culture medium was removed from the 24-well plate. Then, 400 μL of 100 mg/mL skimmed milk solution was added to each well for blocking for one hour. After removing the skimmed milk solution, each of the wells was washed three times by adding 400 μL of PBS solution. Subsequently, 146 μL of FBS-free medium was added to each well. Next, the non-inhibition group received 4 μL of cold PBS per well, while the first single inhibition group, the second single inhibition group, and the dual inhibition group received the following additions per well according to Table 3: 2 μL of non-radiolabeled first single inhibitor solution and 2 μL of cold PBS: 2 μL of non-radiolabeled second single inhibitor solution and 2 μL of cold PBS; 2 μL of non-radiolabeled first single inhibitor solution (10 mM) and 2 μL of non-radiolabeled second single inhibitor solution (10 mM). The plate was incubated at room temperature for one hour.
(§7) (4) The ^68Ga- and ^177Lu-labeled radioactive ligands were formulated by adding FBS-free medium to achieve a radioligand system concentration of 20 nM. Then, 50 μL of this radioligand system was added to each well. Each group was incubated according to the designated time points: 15, 30, 60, and 120 minutes.
(5) After the incubation was complete, the supernatant was removed, and the wells were washed three times with 400 μL of PBS solution. Then, 200 μL of 1 M NaOH solution was added to each well for cell lysis. […] Each well was then washed once with 400 μL of PBS solution, and this wash solution was also added to the corresponding radioimmunoassay tubes.
(6) The radioactivity in the cells was measured using a γ counter. A bar graph was plotted using GraphPad Prism software. The inhibition rate for each inhibition group was calculated as follows: Inhibition Rate (%)=(1−[Radioactive Count of the Inhibition Group]/[Radioactive Count of the Non-inhibition Group])×100%. […]

[3] = tested on: SUM149PT human breast cancer cell line; experiment: Cell saturation binding assay, SUM149PT; settings: 68Ga-labeled compound
Protocol: (§8) (1) For the cell saturation binding assay, a total of 8 radiolabeled ligand concentrations were set at intervals within the anticipated range. For each concentration, there were 3 groups: the non-inhibition group, the first single inhibition group (FAP single inhibition group), and the second single inhibition group (CXCR4/GRPR/αvβ3 single inhibition group). For each concentration and each group, 3 replicate wells were established.
as §5
(§9) (3) The original culture medium was removed from the 24-well plate. Then, 400 μL of 100 mg/mL skimmed milk solution was added to each well for blocking for one hour. After removing the skimmed milk solution, each of wells was washed three times by adding 400 μL of PBS solution. Subsequently, 146 μL of FBS-free medium was added to each well. Next, the non-inhibition group received 4 μL of cold PBS per well, while the first single inhibition group and the second single inhibition group received the following additions per well according to Table 4: 2 μL of non-radiolabeled first single inhibitor solution and 2 μL of cold PBS; 2 μL of non-radiolabeled second single inhibitor solution and 2 μL of cold PBS. The plate was then incubated at room temperature for one hour.
(§10) (4) The ligands were radiolabeled with 68Ga using the labeling method described previously. Different volumes of FBS-free medium were added to formulate the radioligand systems at corresponding concentrations. Then, 50 μL of the corresponding concentration of the radioligand system was added to each well.
(§11) (5) The supernatant was removed, and the wells were washed three times with 400 μL of PBS. 200 μL of IM NaOH solution was added to each well for cell lysis. […] Each well was washed once with 400 μL of PBS solution, and the washings were sequentially added to the corresponding radioimmunoassay tubes.
(§12) (6) Radioactivity in the cells was measured using a γ counter. The equilibrium dissociation constant (KD) was obtained by fitting the curve using nonlinear regression analysis in GraphPad Prism software. KD is the drug concentration that causes half of the maximum effect (50% receptor occupancy).

[4] = tested on: U-118 MG human brain astrocytoma/glioblastoma cell line; experiment: Cell uptake and inhibition assay, U-118 MG; type: cell-based; settings: for cell uptake over incubation time (in words): all groups, 15-120 minutes; for cell uptake, comparison of non-inhibition, FAP single, integrin αvβ3 single and dual inhibition groups (in words): at 30 minutes, FAPI-04 and RGD as inhibitors
Protocol: as §1
as §2, with “U-118 MG:” for “SUM149PT:”
as §3, §4, §5, §6, §7
(5) After the incubation was complete, the supernatant was removed, and the wells were washed three times with 400 μL of PBS solution. Then, 200 μL of 1 M NaOH solution was added to each well for cell lysis. […]
(6) The radioactivity in the cells was measured using a γ counter. […]

[5] = tested on: U-118 MG human brain astrocytoma/glioblastoma cell line; experiment: Cell saturation binding assay, U-118 MG; settings: 68Ga-labeled compound
Protocol: as §8, §5, §9, §10, §11, §12

[6] = conclusion from inhibition groups
[7] = FAPI-04 solution, read-out: KD value, First single inhibition group (FAP single inhibition)
[8] = T140 solution (CXCR4 inhibitor), read-out: KD value, Second single inhibition group (CXCR4/GRPR/αvβ3 single inhibition)
[9] = read-out: KD value, Non-inhibition group
[10] = RGD solution (integrin αvβ3 inhibitor), read-out: KD value, Second single inhibition group (CXCR4/GRPR/αvβ3 single inhibition)

Question: What does the source list for CN1C(=O)[C@@H](Cc2ccc(O)cc2)NC(=O)CNC(=O)[C@H](Cc2ccc3ccccc3c2)NC(=O)[C@H](CCCNC(=N)N)NC(=O)[C@H]1CCCNC(=O)c1ccc(CNC(=O)[C@H](CCCCNC(=O)CN2CCN(CC(=O)O)CCN(CC(=O)O)CCN(CC(=O)O)CC2)NC(=O)CCC(=O)NCCOCCOCC(=O)NCCOCCOCC(=O)N2CCN(CCCOc3ccc4nccc(C(=O)NCC(=O)N5CC(F)(F)C[C@H]5C#N)c4c3)CC2)cc1 [SDYD05, DOTA-FAPI-Pentixafor]?
Answer: PI range of series of peaks ([1]; unlabeled compound): 6.617-7.126; cell uptake, comparison of non-inhibition, FAP single, CXCR4 single and dual inhibition groups (in words) [2]: non-inhibition group exhibited the highest cell uptake, followed by the FAP single inhibition group, while the dual inhibition group showed the lowest uptake rate; specific binding to CXCR4 protein (in words) [2, 6]: can rapidly and efficiently bind specifically to the CXCR4 protein; specific binding to fibroblast activation protein (in words) [2, 6]: bind specifically to fibroblast activation protein to a certain extent; cell uptake over incubation time (in words) [2]: slowly increased and reached a plateau from 15 to 120 minutes; KD values / binding affinity to the receptors (in words) [3]: relatively low KD values; Kd [3, 7]: 0.373 ± 0.035 nM; Kd [3, 8]: 1.99 ± 0.312 nM; Kd [3, 9]: 0.217 ± 0.018 nM

Question: For CCCCCC(=O)N[C@@H]1CSCc2cc(CSCCNC(=O)COCCOCCNC(=O)COCCOCCNC(=O)CSC3CC(=O)N(CCC(=O)N[C@H](CCCCNC(=O)CN4CCN(CC(=O)O)CCN(CC(=O)O)CCN(CC(=O)O)CC4)C(=O)NCc4ccc(C(=O)NCCC[C@@H]5C(=O)N[C@@H](CCCNC(=N)N)C(=O)N[C@@H](Cc6ccc7ccccc7c6)C(=O)NCC(=O)N[C@H](Cc6ccc(O)cc6)C(=O)N5C)cc4)C3=O)cc(c2)CSC[C@@H](C(=O)O)NC(=O)[C@H](Cc2ccccc2)NC(=O)[C@H](CCC(N)=O)NC(=O)C([C@@H](C)O)NC(=O)[C@@H]2CCCN2C(=O)[C@@H]2CCCN2C1=O (stereo partly shown) [SDYD06], which “behaviour of sample prepared in pure water during isoelectric point measurement” value ([1]; pure water) is on record?
Answer: insoluble substance formed

Question: What about the “cell uptake, comparison of non-inhibition, FAP single, CXCR4 single and dual inhibition groups (in words)” value [2] of the same compound?
Answer: from high to low, were as follows: non-inhibition group, FAP single inhibition group, CXCR4 single inhibition group, and dual inhibition group

Question: What about the “cell uptake over incubation time (in words)” value [2] of the same compound?
Answer: slowly increased and reached a plateau from 15 to 120 minutes

Question: What about the “KD values / binding affinity to the receptors (in words)” value (“KD values / binding affinity” below) [3] of the same compound?
Answer: relatively low KD values

Question: What about the Kd [3, 7] of the same compound?
Answer: 0.455 ± 0.056 nM

Question: And the Kd [3, 8]?
Answer: 0.173 ± 0.012 nM

Question: And the Kd [3, 9]?
Answer: 1.41 ± 0.213 nM

Question: With N#C[C@@H]1CC(F)(F)CN1C(=O)CNC(=O)c1ccnc2ccc(OCCCN3CCN(C(=O)[C@H](CCCCNC(=O)CCN4C(=O)CC(SCC(=O)NCCOCCOCCOCCOCCC(=O)NCCCC[C@@H]5NC(=O)[C@@H](Cc6ccc(O)cc6)NC(=O)[C@H](CC(=O)O)NC(=O)CNC(=O)[C@H](CCCNC(=N)N)NC5=O)C4=O)NC(=O)CCC(C(=O)O)N4CCN(CC(=O)O)CCN(CC(=O)O)CCN(CC(=O)O)CC4)CC3)cc12 (stereo partly shown) [SDYD07] as the compound, how does the “Main peak's PI” value ([1]; unlabeled compound) read?
Answer: 4.809

Question: What about the “cell uptake over incubation time (in words)” value [4] of the same compound?
Answer: increased significantly within the first 15 minutes, and then slowly increased

Question: What about the “cell uptake, comparison of non-inhibition, FAP single, integrin αvβ3 single and dual inhibition groups (in words)” value [4] of the same compound?
Answer: from high to low, were as follows: non-inhibition group, FAP single inhibition group, integrin αvβ3 single inhibition group, and dual inhibition group

Question: And the “KD values / binding affinity” value [5]?
Answer: relatively low KD values

Question: And the Kd [5, 7]?
Answer: 7.1 ± 1.06 nM

Question: What about the Kd [5, 10] of the same compound?
Answer: 7.62 ± 0.923 nM

Question: What about the Kd [5, 9] of the same compound?
Answer: 10.5 ± 1.87 nM

Question: Which “Main peak's PI” value ([1]; unlabeled compound) does the source give for CCCCCC(=O)N[C@H]1CSCc2cc(CSCCNC(=O)[C@H](CCCCNC(=O)CCN3C(=O)CC(SCC(=O)NCCOCCOCCOCCOCCC(=O)NCCCC[C@@H]4NC(=O)[C@@H](Cc5ccc(O)cc5)NC(=O)[C@H](CC(=O)O)NC(=O)CNC(=O)[C@H](CCCNC(=N)N)NC4=O)C3=O)NC(=O)CCC(C(=O)O)N3CCN(CC(=O)O)CCN(CC(=O)O)CCN(CC(=O)O)CC3)cc(c2)CSC[C@@H](C(=O)O)NC(=O)[C@H](Cc2ccccc2)NC(=O)[C@H](CCC(N)=O)NC(=O)C([C@@H](C)O)NC(=O)[C@@H]2CCCN2C(=O)[C@@H]2CCCN2C1=O (stereo partly shown) [SDYD08] here?
Answer: 2.916

Question: And the “cell uptake over incubation time (in words)” value [4]?
Answer: increased significantly within the first 15 minutes

Question: And the “cell uptake, comparison of non-inhibition, FAP single, integrin αvβ3 single and dual inhibition groups (in words)” value [4]?
Answer: from high to low, were as follows: non-inhibition group, FAP single inhibition group, integrin αvβ3 single inhibition group, and dual inhibition group

Question: And the “specific binding to fibroblast activation protein and integrin αvβ3 (in words)” value [4, 6]?
Answer: can specifically bind to fibroblast activation protein and integrin αvβ3

Question: And the “KD values / binding affinity” value [5]?
Answer: relatively low KD values

Question: And the Kd [5, 7]?
Answer: 7.12 ± 0.558 nM

Question: And the Kd [5, 10]?
Answer: 10.5 ± 1.06 nM

Question: What about the Kd [5, 9] of the same compound?
Answer: 8.43 ± 0.475 nM
